Measurements taken from ChEMBL document CHEMBL1201862, “PubChem BioAssay data set” (2004).
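Five compound concentrations were applied to cells in 96-well plates for 48 hours; endpoints were derived by simple linear interpolation of the resulting dose-response curve. Here, GI50 denotes the concentration required for 50% inhibition of growth.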 Active and inactive are the calls of the source. Cut-off read from the data, not from the text of the source: active = GI50 up to about 1.1 µM and inactive = higher.

Key:
Assay in all cases: NCI tumour cell line growth inhibition, 48 h
[1] = test system: DMS-114
[2] = test system: LXFL 529
[3] = test system: DLD-1
[4] = test system: KM-20L2
[5] = test system: SNB-78
[6] = test system: HOP-18
[7] = test system: M19-MEL
[8] = test system: RXF 631
[9] = test system: XF498

Row | SMILES | GI50 [1] | GI50 [2] | GI50 [3] | GI50 [4] | GI50 [5] | GI50 [6] | GI50 [7] | GI50 [8] | GI50 [9]
1 | O=C1/C(=C/c2ccccc2)CN(C(=O)CCN2CCOCC2)C/C1=C\c1ccccc1 | 2.88 µM (inactive) | 2.52 µM (inactive) | 1.88 µM (inactive) | 1.92 µM (inactive) | 6.4 µM (inactive) | 16.7 µM (inactive) | 2 µM (inactive) | 7.8 µM (inactive) | –
2 | COC(C)(C)[C@H](O)C(O)CC(C)[C@@H]1CCC23CC12CCC1[C@@]2(C)CCC(OC(C)=O)C(C)(C)C2CC(OC2OC(COC(C)=O)C(O)C(O)C2O)[C@]13C (stereo partly drawn) | 2.61 µM (inactive) | 4.89 µM (inactive) | 1.83 µM (inactive) | 1.1 µM (active) | 8.07 µM (inactive) | 11 µM (inactive) | 3.01 µM (inactive) | 4.86 µM (inactive) | –
3 | CCN(CC)CCn1ccc(=O)c2cc3c(=O)ccn(CCN(CC)CC)c3c(C)c21 | 13.8 µM (inactive) | 4.41 µM (inactive) | 1.65 µM (inactive) | 3.61 µM (inactive) | 11.4 µM (inactive) | 6.82 µM (inactive) | 12.6 µM (inactive) | 5.74 µM (inactive) | 8.95 µM (inactive)
4 | O=C(C(=O)N1CC2C=CC1CC2)c1c[nH]c2ccccc12 (stereo not drawn) | > 100 µM (inactive) | > 100 µM (inactive) | > 100 µM (inactive) | > 100 µM (inactive) | > 100 µM (inactive) | > 100 µM (inactive) | > 100 µM (inactive) | > 100 µM (inactive) | –
5 | CCOP(=O)(C/C(O)=C1\C(=O)C(CCCNC(=O)OC(C)(C)C)N(Cc2ccc(OC)c(OC)c2)C1=O)OCC (stereo not drawn) | > 100 µM (inactive) | > 100 µM (inactive) | > 100 µM (inactive) | > 100 µM (inactive) | – | > 100 µM (inactive) | > 100 µM (inactive) | > 100 µM (inactive) | –
6 | CC1(C)C(=O)C(C)(C)C1=S | > 100 µM (inactive) | > 100 µM (inactive) | > 100 µM (inactive) | > 100 µM (inactive) | – | – | > 100 µM (inactive) | – | > 100 µM (inactive)
7 | C=C(CN(C)C)C(=O)c1ccccc1[N+](=O)[O-] | 18.3 µM (inactive) | 14.8 µM (inactive) | 13.4 µM (inactive) | 23.4 µM (inactive) | 26.7 µM (inactive) | 18.7 µM (inactive) | 17.8 µM (inactive) | 19 µM (inactive) | 17.1 µM (inactive)
8 | COc1ccc(-c2cc(=O)c3ccccc3[nH]2)c(OC)c1 | > 100 µM (inactive) | > 100 µM (inactive) | > 100 µM (inactive) | > 100 µM (inactive) | > 100 µM (inactive) | – | > 100 µM (inactive) | – | –
9 | CCO/C=C/C(C)C1(C(=O)OCC)CCCCC1=O (stereo not drawn) | 86.9 µM (inactive) | > 100 µM (inactive) | > 100 µM (inactive) | > 100 µM (inactive) | > 100 µM (inactive) | > 100 µM (inactive) | > 100 µM (inactive) | > 100 µM (inactive) | > 100 µM (inactive)
10 | NC1=NN(c2ccccc2)C(=O)C1C(=O)C(=O)Nc1nccs1 (stereo not drawn) | > 100 µM (inactive) | > 100 µM (inactive) | > 100 µM (inactive) | > 100 µM (inactive) | > 100 µM (inactive) | > 100 µM (inactive) | > 100 µM (inactive) | > 100 µM (inactive) | –
11 | CCOC(=O)C1=C(Nc2ccc(Br)cc2)OCC1=O | – | > 100 µM (inactive) | > 100 µM (inactive) | > 100 µM (inactive) | > 100 µM (inactive) | > 100 µM (inactive) | > 100 µM (inactive) | – | –
12 | Oc1ccc2c3c1OC1C(=NN=C4CCC5(O)C6Cc7ccc(O)c8c7C5(CCN6CC5CC5)C4O8)CCC4(O)C(C2)N(CC2CC2)CCC314 (stereo not drawn) | 21.6 µM (inactive) | 20.8 µM (inactive) | 46 µM (inactive) | 20.2 µM (inactive) | 62.5 µM (inactive) | > 100 µM (inactive) | 21.7 µM (inactive) | – | 19 µM (inactive)
13 | CCCCCCCCCCCCOP(N)(=O)OCCCCCCCCCCCC | > 100 µM (inactive) | > 100 µM (inactive) | > 100 µM (inactive) | – | > 100 µM (inactive) | – | > 100 µM (inactive) | – | –
14 | Nc1ncnc2c1sc(=S)n2-c1ccccc1 | > 100 µM (inactive) | > 100 µM (inactive) | > 100 µM (inactive) | > 100 µM (inactive) | > 100 µM (inactive) | > 100 µM (inactive) | > 100 µM (inactive) | – | > 100 µM (inactive)
15 | N/N=C1\C(=O)N(c2ccc(Cl)cc2Cl)C(=O)C(=O)C1c1nc2ccccc2o1 (stereo not drawn) | > 100 µM (inactive) | > 100 µM (inactive) | > 100 µM (inactive) | > 100 µM (inactive) | > 100 µM (inactive) | > 100 µM (inactive) | > 100 µM (inactive) | > 100 µM (inactive) | –
16 | Cc1ccc2nc(NC(=O)C(=O)C(C(=O)c3ccc4ccccc4c3)C3OC(=O)c4ccccc43)sc2c1 (stereo not drawn) | 8.22 µM (inactive) | 4.35 µM (inactive) | 13 µM (inactive) | – | 4.36 µM (inactive) | – | 14.5 µM (inactive) | – | –
17 | CC(=O)O[C@H]1CC[C@@]2(C)C(=CC[C@@H]3C2CC[C@]2(C)Nc4[nH]ncc4CC32)C1 (stereo partly drawn) | 16.5 µM (inactive) | 19.9 µM (inactive) | 32 µM (inactive) | 27.9 µM (inactive) | 42.7 µM (inactive) | – | 24.7 µM (inactive) | 16.7 µM (inactive) | 4.1 µM (inactive)
18 | N#CCC(=O)N/N=C1/C(=O)NC(=O)C(=O)C1c1nc2ccccc2s1 (stereo not drawn) | > 100 µM (inactive) | > 100 µM (inactive) | > 100 µM (inactive) | > 100 µM (inactive) | > 100 µM (inactive) | > 100 µM (inactive) | > 100 µM (inactive) | > 100 µM (inactive) | –
19 | CC(C)(C)C1CC[C@H]2c3c([nH]c4ccc(Br)cc34)[C@H]3C(=O)N(c4ccccc4)C(=O)[C@H]3[C@H]2C1 (stereo partly drawn) | 18.2 µM (inactive) | 14.3 µM (inactive) | 27.8 µM (inactive) | 45.9 µM (inactive) | 10 µM (inactive) | 33 µM (inactive) | 19.8 µM (inactive) | 4.13 µM (inactive) | 16.9 µM (inactive)
